# Assay results reported in patent US20080268044A1, “Novel Process and Formulations” (Glaxo Group Limited, priority 2005, published 2008).
# Assay: Comparison of salt forms (solubility, stability)
# Format: physicochemical
smiles,measurement,value
"Cc1cc(F)ccc1-c1nc(NC(CO)CO)nc2c1ccc(=O)n2-c1c(F)cccc1F [sulphate, 8-(2,6-difluorophenyl)-4-(4-fluoro-2-methylphenyl)-2-{[2-hydroxy-1-(hydroxymethyl)ethyl]amino}pyrido[2,3-d]pyrimidin-7(8H)-one]",stability of salt forms (comparison),less stable than the other salt forms
